ChEMBL document CHEMBL1127150, “Enantioselective synthesis and antielastase activity of 1,3,4-trisubstituted and 3,4-disubstituted -lactam antibiotics” (Bioorg Med Chem Lett, 1993)
The source made the active and inactive calls. No cut-off for these calls is given here.

How the values were obtained:
[1] = target: T1, Neutrophil elastase (Homo sapiens) (UniProt P08246); assay: The compound was evaluated in vitro for the inhibition of human leukocyte elastase(HLE); Not Active
T1 sequence (whole entry): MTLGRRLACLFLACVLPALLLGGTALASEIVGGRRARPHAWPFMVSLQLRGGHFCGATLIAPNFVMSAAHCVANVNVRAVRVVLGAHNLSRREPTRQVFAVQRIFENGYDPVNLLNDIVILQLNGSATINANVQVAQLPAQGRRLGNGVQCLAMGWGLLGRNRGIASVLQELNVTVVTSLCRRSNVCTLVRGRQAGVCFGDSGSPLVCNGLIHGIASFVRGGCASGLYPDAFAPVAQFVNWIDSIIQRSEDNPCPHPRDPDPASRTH

[2] = target: T2, Chymotrypsin-like elastase family member 2A (Sus scrofa) (UniProt P08419); assay: The compound was evaluated in vitro for the inhibition of Pancreatic elastase (PPE); Not Active
T2 sequence (whole entry): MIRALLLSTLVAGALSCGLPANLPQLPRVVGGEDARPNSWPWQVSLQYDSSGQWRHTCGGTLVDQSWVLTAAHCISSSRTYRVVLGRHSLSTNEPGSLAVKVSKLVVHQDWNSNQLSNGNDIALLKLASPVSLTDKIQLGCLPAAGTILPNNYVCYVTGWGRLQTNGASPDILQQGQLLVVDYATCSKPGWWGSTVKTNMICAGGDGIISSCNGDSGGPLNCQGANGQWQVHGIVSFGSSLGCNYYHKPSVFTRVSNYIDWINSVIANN

Neutrophil elastase = target: T3, Neutrophil elastase (Homo sapiens, UniProt P08246); assay: The compound was evaluated in vitro for the inhibition of human leukocyte elastase(HLE)
T3 sequence (P08246 whole entry): T1 sequence (whole entry)

SMILES | Activity [1] | Activity [2] | IC50 (Neutrophil elastase) [µM]
CO[C@@H]1C(=O)N[C@@H]1/C(C)=C/c1ccccc1 | inactive | inactive | 
CCCC[C@@H]1C(=O)N(C(C)=O)[C@@H]1C(C)=O |  |  | 45
CO[C@H]1C(=O)N[C@H]1/C=C/c1ccccc1 | inactive | inactive | 
CO[C@@H]1C(=O)N(C(C)=O)[C@@H]1c1ccccc1 |  |  | 1.6
CCCC[C@@H]1C(=O)N[C@@H]1/C(C)=C/c1ccccc1 (stereo in doubt; 11) | inactive | inactive | 
CCCC[C@@H]1C(=O)N[C@@H]1C(C)=O | inactive | inactive | 
CO[C@@H]1C(=O)N[C@@H]1/C=C/c1ccccc1 | inactive | inactive | 
CO[C@@H]1C(=O)N([C@@H](C2SCCCS2)C2OC(C)(C)OC2C2COC(C)(C)O2)[C@@H]1/C(C)=C/c1ccccc1 (stereo not given in full) |  |  | 18
CO[C@@H]1C(=O)N[C@@H]1C(C)=O | inactive | inactive | 
CO[C@H]1C(=O)N([C@@H](C2SCCCS2)C2OC(C)(C)OC2C2COC(C)(C)O2)[C@H]1/C=C/c1ccccc1 (stereo not given in full) |  |  | 76
CCCC[C@@H]1C(=O)N([C@@H](C2SCCCS2)C2OC(C)(C)OC2C2COC(C)(C)O2)[C@@H]1/C(C)=C/c1ccccc1 (stereo not given in full) |  |  | 11
O=c1oc(Cl)c(Cl)c2ccccc12 |  |  | 0.1
CO[C@@H]1C(=O)N[C@@H]1OC(C)=O | inactive | inactive | 
CO[C@@H]1C(=O)N[C@@H]1c1ccccc1 | inactive | inactive | 
CO[C@@H]1C(=O)N(C(C)=O)[C@@H]1/C(C)=C/c1ccccc1 |  |  | 1.4
CO[C@H]1C(=O)N[C@H]1c1ccccc1 | inactive | inactive | 
CCCC[C@H]1C(=O)N([C@@H](C2SCCCS2)C2OC(C)(C)OC2C2COC(C)(C)O2)[C@H]1/C(C)=C/c1ccccc1 (stereo not given in full) |  |  | 13
CCCC[C@@H]1C(=O)N[C@@H]1/C(C)=C/c1ccccc1 (stereo in doubt; 10) | inactive | inactive | 
CCCC[C@@H]1C(=O)N(C(C)=O)[C@@H]1/C(C)=C/c1ccccc1 |  |  | 43
CO[C@@H]1C(=O)N(C(C)=O)[C@@H]1C(C)=O |  |  | 94
